{"source": "patent US5985926A", "about": "“Method for inhibiting intracellular viral replication” (Cell Therapeutics, Inc., priority 1997, dated 1999)", "key": {"HIV infection": {"tested_on": "HIV infection", "settings": "cited from earlier work"}, "[1]": {"tested_on": "HIV in chronically infected cell lines", "settings": "cited from earlier work"}, "[2]": {"tested_on": "HIV-LTR promoter (tat transactivation) in 293-EBNA cells", "test": "AP reporter gene expression from HIV-LTR promoter with tat expression vector, 293-EBNA cells", "type": "cell-based, HIV; human cells", "in_short": "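293-EBNA cells were transiently co-transfected with an HIV-LTR-driven secreted placental alkaline phosphatase reporter and a tat(1–72) expression plasmid. At 24 h, the medium was switched to serum-free AIM V before compounds were added at various concentrations. Secreted AP activity was read colorimetrically at 405 nm 19–24 h later.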"}, "[3]": {"tested_on": "CMV promoter in 293-EBNA cells", "test": "AP reporter gene expression from CMV promoter, 293-EBNA cells stably transfected with pCMV.AP", "type": "cell-based, human cytomegalovirus; human cells", "settings": "Homo sapiens, 293-EBNA; FIG. 8; read-out: concentration inhibiting AP activity by 50% (CMV assay)", "in_short": "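293-EBNA cells carrying episomal pCMV.AP, expressing secreted placental alkaline phosphatase from the CMV enhancer/promoter, treated with various compound concentrations. Reporter expression read as change in A405 of conditioned medium with substrate such as ortho-nitrophenol phosphate.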"}, "[4]": {"test": "Viability of 293-EBNA cells, Alamar Blue", "type": "cell-based, human", "settings": "human, 293-ebna cells; read-out: LD50 (CMV assay, FIG. 9)", "in_short": "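Viability read with Alamar Blue, a vital dye reduced by mitochondrial dehydrogenases to a soluble product. Signal quantified as the absorbance difference between A570 and A600.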"}, "[5]": {"test": "Viability of 293-EBNA cells (dye not stated)", "settings": "human"}, "[6]": {"tested_on": "LPAAT (lysophosphatidate acyl-CoA acyltransferase)", "test": "LPAAT inhibition in vitro", "type": "biochemical, mammalian", "settings": "Lineweaver-Burke graph", "text": "The mammalian cell membrane associated enzyme lysophosphatidate acyl-CoA acyltransferase (LPAAT) catalyzes the transfer of acyl CoA from lysophosphatidic acid (lyso-PA) to phosphatidic acid (PA) species. Certain PA species function as lipid intermediates in cell activation and function directly as intracellular signaling molecules. PA is subsequently dephosphorylated to 1,2-sn diacylglycerol (DAG) via phosphatidate phosphohydrolase (PAH). The compounds that inhibit viral replication, gene expression and viral antigen release in infected cells also have decreased amounts of intracellular PA species that are formed in response to inflammatory cellular activation. […] Therefore, if PA derived from lyso-PA is an important intracellular signaling intermediate for TNF or IL-1 induced viral replication in virally-infectedcells, then inhibitors of PA formation will act to prevent progression of viral diseases by blocking cell signaling to stimulate virion formation."}, "[7]": {"tested_on": "HIV-1 in U1 cells (constitutive expression)", "test": "Constitutive HIV-1 p24 antigen expression in chronically infected U1 cells", "type": "cell-based, HIV-1; human cells", "settings": "U1 cells plated at high density; in words", "protocol": "(§1) Another assay examined the effect of compounds on chronically HIV-1 infected U1 cells. A relatively high density of U1 cells at 10^4 cells/well were incubated in the absence or presence of compounds for 4 days. HIV-1 p24 antigen expression in the culture media was measured by using a ELISA kit (Abbott). Alternatively, U1 cells were plated at a relatively low density of 2×10^3 cell/well plus or minus TNF at 20 pg/ml and plus or minus compounds. The expression of HIV-1 p24 antigen in culture media was measured by ELISA four days later.\n(§2) Stable cell lines 293tar, 293tat and 293tat2 were generated by transfections using conditions described in (Tate et al., FASEB J. 4:227-231, 1990) with the plasmid pHIV.AP alone or along with either pHIV.tat or pSV2tat72, respectively. The assay of HIV-1 p24 antigen expression in the chronically HIV-1-infected promonocytic line U1 after 4 days and in acutely infected peripheral blood lymphocytes (PBL) after 7 days were described (Peterson et al., J. Clin. Invest. 89:574-580, 1992, and Brighty et al., Proc Natl. Acad. Sci. USA 88:7802-7805, 1991).\n(§3) This example illustrates that CT2576 inhibited both constitutive and cytokine-induced HIV expression in a chronically-infected U1 cell line. A chronically HIV-1 infected human promonocyte cell line, U1 (Poli et al., J. Exp. Med. 172:151-158, 1990), was used as a model to see if the inhibitory effect of CT2576 on HIV-LTR driven reporter gene expression could be extended to block HIV replication per se in infected cells. TNF-α and IL-6 have been reported to upregulate the expression of HIV-1 in U1 cells (Poli et al., Proc Natl. Acad. Sci. USA 91:108-112, 1994). U1 cells were plated onto 24-well microtiter plates to study the dose-response effect of CT2576 on the constitutive (10^4 cells/well), TNF-α or IL-6 mediated (2×10^3 cells/well) expression of HIV-1. CT2576 was capable of inhibiting the constitutive, the TNF-α mediated, as well as the IL-6 mediated expression of HIV in U1 cells with an IC50 value of less than 1 μM (FIG. 17)."}, "[8]": {"tested_on": "HIV-1 in U1 cells (TNF-α mediated expression)", "test": "TNF-α-mediated HIV-1 p24 antigen expression in chronically infected U1 cells", "type": "cell-based, HIV-1; human cells", "settings": "U1 cells; in words", "protocol": "as §1, §2, §3"}, "[9]": {"tested_on": "HIV in infected monocytic cells", "test": "HIV replication, gene expression and p24 release in infected monocytic cells stimulated by TNF", "type": "cell-based", "settings": "TNF activation", "protocol": "as §1"}, "[10]": {"tested_on": "HIV-1 strain JR-CSF in PBL", "test": "HIV-1 p24 antigen expression in acutely infected peripheral blood lymphocytes (PBL)", "type": "cell-based, HIV-1; human cells", "settings": "Human immunodeficiency virus 1, Lymphocyte, clinical isolate", "protocol": "FIG. 17 illustrates a dose response curves of CT2576 on constitutive, TNF-α, and IL-6-mediated expression of HIV-1 in a chronically infected U1 cell line (left Y-axis) and of CT3537 on HIV expression in PBL acutely infected with the JR-CSF primary isolate (right Y-axis). U1 cells were incubated for four days after the addition of CT2576 with or without TNF-α (20 pg/ml) or IL-6 (1 ng/ml). PBL were inoculated with HIV at 10 ng virus/10^6 cells/well and incubated with various concentrations of CT3537 for 7 days. Each data point represents the average expression levels of HIV-1 p24-antigen in the cell supernatants measured by ELISA from triplicate samples with error bar indicating the SD.\nas §2, with “1991). […]” for “1991).”"}, "[11]": {"tested_on": "HIV-LTR promoter / tat protein", "settings": "through interaction with the tat protein; cited from earlier work"}}, "note": "Entries after “also recorded” stand apart in the source; their conditions may differ."}
{"smiles": "Cc1cn([C@H]2C[C@H](N=[N+]=[N-])[C@@H](CO)O2)c(=O)[nH]c1=O", "note": "[AZT]", "values": [{"measurement": "progression of AIDS disease", "setting": "HIV infection; asymptomatic patients, early stage HIV infection", "result": "no delay in the progression of AIDS disease"}, {"measurement": "CD4+ T cell number", "setting": "HIV infection; treatment versus placebo group", "result": "consistently higher number of CD4^+ T cells"}, {"measurement": "activity on HIV replication in chronically infected cell lines", "setting": "[1]", "result": "not to be active"}]}
{"smiles": "CCCCCCCCNCC(O)CCCCCCCCCn1c(=O)c2[nH]cnc2n(C)c1=O", "note": "(stereo not shown) [CT1416, N-(11-octylamino-10-hydroxyundecyl)-3-methylxanthine]", "values": [{"measurement": "IC50", "setting": "[2]; Homo sapiens, 293-EBNA, read-out: concentration inhibiting AP expression by 50%", "result": "1 to 4", "unit": "µM"}, {"measurement": "IC50", "setting": "[3]", "result": "2 to 6", "unit": "µM"}, {"measurement": "CC50", "setting": "[4]", "result": "~5", "unit": "µM"}, {"measurement": "effect on cell viability / cytotoxicity", "setting": "293-EBNA cells", "result": "some cytotoxicity"}, {"measurement": "CC50", "setting": "[5]", "result": "~5", "unit": "µM"}]}
{"smiles": "C[C@@H](O)CCCCn1c(=O)c2c(ncn2C)n(C)c1=O", "note": "[CT1501R, R-1-(5-hydroxyhexyl)-3,7-dimethylxanthine]", "values": [{"measurement": "mode of LPAAT inhibition", "setting": "[6]", "result": "competitive inhibition"}, {"measurement": "inhibition of AP expression (HIV-LTR promoter)", "setting": "[2]; 293-EBNA cells, HIV promoter, in words", "result": "No appreciable inhibition of AP expression; also recorded: did not affect AP activity"}, {"measurement": "suppression of constitutive HIV-1 expression (p24)", "setting": "[7]", "result": "suppressed constitutive HIV-1 expression"}, {"measurement": "suppression of TNFα-mediated HIV-1 expression (p24)", "setting": "[8]", "result": "suppressed HIV-1 expression"}, {"measurement": "antiviral activity in TNF-stimulated infected monocytic cells", "setting": "[9]", "result": "inhibiting HIV replication, gene expression and p24 release"}, {"measurement": "effect on cell viability / cytotoxicity", "setting": "293-EBNA cells", "result": "did not affect AP activity and cell viability significantly"}]}
{"smiles": "CCCCCCCCN(CC(CCCCCCCCCn1c(=O)c2c(ncn2C)n(C)c1=O)OC(C)=O)C(C)=O", "note": "(stereo not shown) [CT3537, 1-[11-(N-octylacetamido)-10-acetoxyundecyl]-3,7-dimethylxanthine]", "values": [{"measurement": "IC50", "setting": "[10]", "result": "< 1", "unit": "µM"}]}
{"smiles": "CNC1=Nc2ccc(Cl)cc2C(c2ccc[nH]2)=NC1", "note": "[Ro 24-7429]", "values": [{"measurement": "block of HIV-LTR promoter transcription", "setting": "[11]", "result": "blocks HIV-LTR promoter transcription"}]}
